Measured values taken from ChEMBL document CHEMBL4177641, “Identification of an allosteric benzothiazolopyrimidone inhibitor of the oncogenic protein tyrosine phosphatase SHP2” (Bioorg Med Chem, 2017).
Residue numbers refer to the chain shown, from its start. Calls of active or inactive are those of the source. The rule behind the calls is not given here.

Tests used:
[1] = test system: T1, Tyrosine-protein phosphatase non-receptor type 11 (Homo sapiens), Q06124 [F285S]; assay: Inhibition of SHP2 F285S mutant (1 to 525 residues) (unknown origin) expressed in Escherichia coli BL21(DE3) at up to 2 uM using DIFMUP as substrate preincubated for 30 mins followed by substrate addition by fluorescence assay
T1 sequence (whole entry): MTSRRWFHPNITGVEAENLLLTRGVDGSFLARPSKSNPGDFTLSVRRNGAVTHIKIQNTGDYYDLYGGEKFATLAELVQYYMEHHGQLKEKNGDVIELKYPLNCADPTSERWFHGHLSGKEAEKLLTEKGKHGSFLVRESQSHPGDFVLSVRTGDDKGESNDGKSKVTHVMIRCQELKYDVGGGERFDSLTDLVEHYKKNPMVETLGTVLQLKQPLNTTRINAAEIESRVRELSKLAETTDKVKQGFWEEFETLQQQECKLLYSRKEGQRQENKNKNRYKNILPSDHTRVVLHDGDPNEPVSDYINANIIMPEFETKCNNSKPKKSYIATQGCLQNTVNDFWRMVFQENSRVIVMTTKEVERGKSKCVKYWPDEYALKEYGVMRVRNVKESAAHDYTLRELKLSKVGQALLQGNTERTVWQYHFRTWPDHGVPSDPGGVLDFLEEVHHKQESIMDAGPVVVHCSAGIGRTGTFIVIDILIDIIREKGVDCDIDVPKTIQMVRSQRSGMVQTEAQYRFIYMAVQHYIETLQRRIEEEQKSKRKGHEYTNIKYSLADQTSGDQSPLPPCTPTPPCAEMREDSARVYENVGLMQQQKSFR

A2058 = assay: Antiproliferative activity against human A2058 cells harboring BRAF V600E mutation at up to 2 uM after 3 days by CellTiter-Glo luminescence assay; type: functional, cell-based
MOLM-14 = assay: Antiproliferative activity against human MOLM14 cells after 3 days by CellTiter-Glo luminescence assay; type: functional, cell-based; conditions: for IC50: MOLM-14, 72 h
[2] = test system: T2, Tyrosine-protein phosphatase non-receptor type 11 (Homo sapiens), Q06124 [F285S,T253M,Q257L]; assay: Inhibition of SHP2 F285S/T253M/Q257L mutant (1 to 525 residues) (unknown origin) expressed in Escherichia coli BL21(DE3) using DIFMUP as substrate preincubated for 30 mins followed by substrate addition by fluorescence assay
T2 sequence (whole entry): T1 sequence (whole entry) with T253M, Q257L

[3] = molecular target: T3, Tyrosine-protein phosphatase non-receptor type 11 (Homo sapiens) (UniProt Q06124); assay: Inhibition of SHP2 PTP domain (1 to 525 residues) (unknown origin) expressed in Escherichia coli BL21(DE3) using DIFMUP as substrate preincubated for 30 mins followed by substrate addition by fluorescence assay
T3 sequence (whole entry): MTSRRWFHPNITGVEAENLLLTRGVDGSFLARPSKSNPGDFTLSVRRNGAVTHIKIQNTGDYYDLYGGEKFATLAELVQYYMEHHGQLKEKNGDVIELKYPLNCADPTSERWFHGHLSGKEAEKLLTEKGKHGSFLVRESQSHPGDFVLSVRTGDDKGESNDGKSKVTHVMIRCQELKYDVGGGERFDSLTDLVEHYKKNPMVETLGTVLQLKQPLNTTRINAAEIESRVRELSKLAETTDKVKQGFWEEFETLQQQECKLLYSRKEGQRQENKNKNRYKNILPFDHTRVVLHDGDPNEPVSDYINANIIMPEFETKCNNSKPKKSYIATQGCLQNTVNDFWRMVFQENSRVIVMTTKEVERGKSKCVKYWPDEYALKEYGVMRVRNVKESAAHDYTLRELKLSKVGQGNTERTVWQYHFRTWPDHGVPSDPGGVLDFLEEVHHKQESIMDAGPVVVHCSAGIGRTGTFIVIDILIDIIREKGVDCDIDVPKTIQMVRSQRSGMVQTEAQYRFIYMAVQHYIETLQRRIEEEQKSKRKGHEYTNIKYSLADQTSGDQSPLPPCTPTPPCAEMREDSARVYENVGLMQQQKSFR

[4] = test system: T1, Tyrosine-protein phosphatase non-receptor type 11 (Homo sapiens), Q06124 [F285S]; assay: (§1) Inhibition of SHP2 F285S mutant (1 to 525 residues) (unknown origin) expressed in Escherichia coli BL21(DE3) using DIFMUP as substrate preincubated for 30 mins followed by substrate addition by fluorescence assay
[5] = molecular target: Tyrosine-protein phosphatase non-receptor type 11 (Homo sapiens, UniProt Q06124, F285S); assay: as §1
[6] = molecular target: T3, Tyrosine-protein phosphatase non-receptor type 11 (Homo sapiens); assay: Inhibition of SHP2 in human MOLM14 cells assessed as reduction in phospho-Erk levels at up to 400 uM after 2 hrs by Western blot analysis; type: cell-based
[7] = molecular target: T3, Tyrosine-protein phosphatase non-receptor type 11 (Homo sapiens); assay: Inhibition of wild-type SHP2 (1 to 525 residues) (unknown origin) expressed in Escherichia coli BL21(DE3) using DIFMUP as substrate preincubated for 30 mins followed by substrate addition by fluorescence assay

Compound | inhibition [1] | Activity (A2058) | IC50 (MOLM-14) [µM] | further results
COc1ccc2c(c1)sc1nc(Cl)c(Cc3ccccc3)c(=O)n12 | inactive | inactive | – | Activity (MOLM-14): inactive
NCc1ccc2c(c1)sc1nc(O)c(Cc3ccccc3)c(=O)n12 | – | inactive | – | –
COc1ccc2c(c1)sc1nc(O)c(Cc3ccccc3)c(=O)n12 | 40% | – | – | inhibition [2]: inactive; inhibition [3]: inactive; inhibition [4]: Dose-dependent effect; IC50 [5]: 10 µM
O=c1c(Cc2ccccc2)c(O)nc2sc3cc(Cl)ccc3n12 | 60% | inactive | 85 | inhibition [6]: inactive; inhibition [7]: Active
CC1(N)CCN(c2cnc(-c3cccc(Cl)c3Cl)c(N)n2)CC1 | – | inactive | 0.9 | –
